Laboratory results as given in patent US7553871B2, “Fatty acid antimicrobial” (GEA WestfaliaSurge, Inc., priority 1996, dated 2009).

How the values were obtained:
Type in all cases: cell-based
Staphylococcus aureus [1] = assay: In vitro suspension kill test, 1 minute contact at 37° C., survivors plated (Examples 1, 4, 5); conditions: 1 minute at 37° C.
Method: (§1) A set of in vitro tests was run on Staphylococcus aureus, Escherichia coli, Streptococcus agalactiae, Streptococcus uberis, Staphylococcus epidermidis, and Pseudomonas aeruginosa. A culture of the microorganism was first prepared according to the following procedure. Six to ten milliliters of trypticase soy broth was inoculated with the organism under consideration from a frozen or refrigerated stock. After incubation for five to seven hours at 37° C., the culture was transferred to a flask containing trypticase soy broth. The culture in the flask was then incubated on a gyratory shaker at approximately 1500 rpm overnight at 37° C. The next day, the culture in the flask is washed once in phosphate buffered saline solution (PBS) and stored at approximately 4° C. until needed. […]
(§2) The surviving bacteria suspended in quencher solution were then diluted with PBS and plated on appropriate media, for example, MacConkey for Escherichia coli, Staph 110 for Staphylococcus, and trypticase soy agar with 6% Sheep's blood for Streptococcus. The plates were incubated 24 to 48 hours at 37° C. and counted. The surviving organisms were expressed as colony forming units (CFU)/ml, and compared to the negative control as percent survival. […]

Escherichia coli [2] = assay: Excised dairy cow teat dip test (Example 2); conditions: Escherichia coli on excised cow teats; dipped, drained ten minutes; log mean CFU/ml vs negative control
Method: (§3) Another set of in vitro tests were run on Staphylococcus aureus, Escherichia coli, and Streptococcus uberis. A culture of the microorganism was first prepared according to the following procedure. Six to ten milliliters of trypticase soy broth was inoculated with the organism under consideration from a frozen or refrigerated stock. After incubation for five to seven hours at 37° C., the culture was transferred to a flask containing 200 milliliters of trypticase soy broth. The culture in the flask was then incubated on a gyratory shaker at approximately 1500 rpm overnight at 37° C. The next day, the culture in the flask is washed once in PBS or 0.1% protease peptone, and stored at approximately 4° C. until required.
(§4) The tests were run using dairy cow teats which had been obtained from a slaughter house. The teats were cut off at their connection to the udder, cleaned, and all hair was removed by using an open flame. The teats selected for the testing were screened for lesions, cuts, scars or other abnormalities. The teats were stored until needed in plastic bags in ice at a temperature below freezing. […]
(§5) Countable dilutions were plated on appropriate media, and incubated from 24 to 48 hours at 37° C. The colonies were counted macroscopically with the aid of fluorescent light. Non-typical colonies were not counted. […]

Staphylococcus aureus [3] = assay: Excised dairy cow teat dip test (Example 2); conditions: Staphylococcus aureus on excised cow teats; dipped, drained ten minutes; log mean CFU/ml vs negative control
Method: as §3, §4, §5

Escherichia coli [4] = assay: In vitro suspension kill test, 1 minute contact at 37° C., survivors plated (Examples 1, 5); conditions: 1 minute at 37° C.
Method: as §1, §2

Pseudomonas aeruginosa = assay: In vitro suspension kill test, 1 minute contact at 37° C., survivors plated (Example 1); conditions: diluted with organic load (1:1 with whole milk)
Method: (§6) A set of in vitro tests was run on Staphylococcus aureus, Escherichia coli, Streptococcus agalactiae, Streptococcus uberis, Staphylococcus epidermidis, and Pseudomonas aeruginosa. A culture of the microorganism was first prepared according to the following procedure. Six to ten milliliters of trypticase soy broth was inoculated with the organism under consideration from a frozen or refrigerated stock. After incubation for five to seven hours at 37° C., the culture was transferred to a flask containing trypticase soy broth. The culture in the flask was then incubated on a gyratory shaker at approximately 1500 rpm overnight at 37° C. The next day, the culture in the flask is washed once in phosphate buffered saline solution (PBS) and stored at approximately 4° C. until needed.
(§7) To test a specific antimicrobial's efficacy, ten milliliters of the culture was transferred to a 15 milliliter centrifuge tube and centrifuged at approximately 600 to 700 g for approximately five to ten minutes. After decanting the supernatant, ten milliliters of the antimicrobial (or PBS in the negative, or untreated, control) was added, and the centrifuge tube vortexed to suspend the bacteria. In those tests involving “organic loads”, a 1:1 dilution of the antimicrobial with whole milk was made before addition to the cultured microorganism to simulate conditions the product may have to experience in a real life environment, such as on a cow's teat.
(§8) The tube was then placed in a 37° C. water bath for 1 minute. The tube was centrifuged again at approximately 600 to 700 g for approximately five to ten minutes, and the supernatant decanted. The remaining precipitate was then suspended in a quencher solution containing letheen broth, 1% sodium thiosulfate and 0.2 mM CaCl2. The tube was centrifuged at approximately 600 to 700 g for approximately five to ten minutes, decanted and washed a second time in the quencher solution.
(§9) The surviving bacteria suspended in quencher solution were then diluted with PBS and plated on appropriate media, for example, MacConkey for Escherichia coli, Staph 110 for Staphylococcus, and trypticase soy agar with 6% Sheep's blood for Streptococcus. The plates were incubated 24 to 48 hours at 37° C. and counted. The surviving organisms were expressed as colony forming units (CFU)/ml, and compared to the negative control as percent survival.

Streptococcus uberis = assay: as above; conditions: diluted with organic load (1:1 with whole milk)
Method: as §6, §7, §8, §9

[5] = system: Staphylococcus epidermidis; assay: as above; conditions: diluted with organic load (1:1 with whole milk)
Method: as §6, §7, §8, §9

Streptococcus agalactiae = assay: as above; conditions: diluted with organic load (1:1 with whole milk)
Method: as §6, §7, §8, §9

[6] = diluted with organic load (1:1 with whole milk)

SMILES: [O][Cl+][O-] [chlorine dioxide]
- Percent Survival (Staphylococcus aureus [1]; [6]): 16.96%
- Percent Survival (Staphylococcus aureus [1]; undiluted antimicrobial, CFU/ml compared to negative control): 0%
- Percent Log Reduction (Escherichia coli [2]): 22%
- Percent Log Reduction (Staphylococcus aureus [3]): 33.90%
- Percent Survival (Escherichia coli [4]; [6]): 0%
- Percent Survival (Escherichia coli [4]; undiluted antimicrobial): 0%
- Percent Survival (Pseudomonas aeruginosa): 0%
- Percent Survival (Streptococcus uberis): 5.19%
- Percent Survival [5]: 5%
- Percent Survival (Streptococcus agalactiae): 0%
